Assay results taken from patent US20240262826A1, “WILD TYPE KIT INHIBITORS” (Blueprint Medicines Corporation, priority 2022, published 2024).

Key:
Exon 11 KIT = Exon 11 KIT (Homo sapiens (Human), UniProt P10721, V560G); experiment: Exon 11 HMC1.1 autophosphorylation assay (Phospho-Y719 c-KIT ELISA); format: cell-based; settings: 90 minutes, read-out: IC50 HMC1.1 pKIT
Protocol: Exon 11 HMC1.1 autophosphorylation assay: 50,000 HMC1.1 cells were incubated in 50 ul culture media (phenol-red free IMDM, no iron, no serum) in each well of a 96-well plate and serum starved 4 hours in a tissue culture incubator (5% CO2, 37° C.). An 8-point dose concentration series of compound were then added to the cells in a volume of 7 ul to each well. After 90 minutes, 14 ul of 5× AlphaLISA Lysis Buffer (Perkin Elmer) supplemented with a protease and phosphatase inhibitor cocktail (Cell Signaling Technologies) was added to each well and shaken at […] for 5 minutes at 4° C. Phospho-Y719 c-KIT ELISA kit from Cell Signaling Technology was used to assess levels of phospho KIT.

wild type c-kit [1] = biological target: T1, wild type c-kit (Homo sapiens (Human), UniProt P10721); experiment: PathScan phospho c-kit (Tyr719) sandwich ELISA in SCF-stimulated M-07e cells (pKIT assay); format: cell-based; settings: ELISA assay (values not marked *)
Procedure, shortened: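 Tyr719-phosphorylated c-kit was measured by colorimetric (TMB) sandwich ELISA in lysates of M-07e cells. Cells were starved 4 h without serum or GM-CSF, dosed 60 min at 37 °C with compound (8 points, duplicate, 0.25% DMSO), and stimulated 10 min with human SCF (500 ng/mL as added). IC50 values came from 4-parameter logistic regression.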

NIH3T3 parental cells = experiment: Exon 9 assay, parental cells: cell viability (CellCounting Lite 2.0), 72 hours; format: cell-based; settings: Mus musculus
Protocol: (§1) Exon 9 assay: The NIH3T3 cell lines that overexpressed the kit mutation exon 9 (or parental cells) were resuscitated and well cultured, and the cells were collected and seeded in 96-well plates at 3000/well, then the compounds were added to the 96 well plates in a gradient dilution, and the plates were incubated in an incubator for 72 hours.
(§2) After 72 hours of incubation, an equal volume of CellCounting
(§3) Lite 2.0 Luminescent Cell Viability reagent was added to the 96-well plates to detect the cell viability. The data were analyzed using GraphPad Prism 7.0 softwar e, and the nonlinear S-curve regression was used to fit the data to obtain the dose-effect curve, and the IC50 value was calculated accordingly.

[2] = test system: NIH3T3 cell lines that overexpressed the kit mutation exon 9; experiment: Exon 9 assay: cell viability (CellCounting Lite 2.0), 72 hours; format: cell-based; settings: Mus musculus, read-out: IC50 NIH3T3-cKit-AY502-3dup
Protocol: as §1, §2, §3

[3] = biological target: human P-glycoprotein (P-gp, MDR1) (Homo sapiens (Human), UniProt P08183); experiment: MDCK-MDR1 cell monolayer drug transport assay (P-gp efflux ratio); format: in vitro ADME; settings: pH 7.4, MDCK-MDR1 cells, 1 uM concentration of compound, read-out: Pgp Efflux Ratio, 1 uM
Procedure, shortened: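 P-gp substrate potential tested in MDCK-MDR1 monolayers on Transwell supports, cultured 4-8 days; monolayers with TEER <42 ohms·cm2 discarded. Transport run in HBSS (10 mM HEPES, pH 7.4) at 37° C with compound working solution at 1 μM.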

wild type c-kit [4] = biological target: T1, wild type c-kit; experiment: MSD Phospho c-Kit (Tyr721) Assay Whole Cell Lysate Kit in SCF-stimulated M-07e cells (pKIT assay, marked *); format: cell-based; settings: Meso Scale Discovery (MSD) assay (values marked *)
Protocol: The ability of compounds of the disclosure (described herein as test compounds) to inhibit autophosphorylation of wild type c-kit was measures using either a PathScan phospho c-kit (Tyr719) sandwich ELISA (CST #7298) or a Phospho c-Kit (Tyr721) Assay Whole Cell Lysate Kit (MSD: 515DPD/catalog number K15119D-2).
For the MSD Phospho c-Kit (Tyr721) Assay Whole Cell Lysate Kit: M-07e cells were maintained in Iscove's Modified Dulbecco's Medium (IMDM) media supplemented with 10% FBS, 5 ng/ml granulocyte-macrophage colony-stimulating factor (GM-CSF) and 100 units/mL Penicillin-Streptomycin, and grown in a 37° C., 5% CO2 in a humidified tissue culture incubator. M-07e cells were washed with phenol red-free, serum-free, GM-CSF-free IMDM and seeded in the same media at 100,000 cells well in a volume of 50 ul in a 96-well U-bottom plate. The cells were incubated for 4 hours, followed by the addition of test compound at a final DMSO concentration of 0.25% for 60 min at 37° C. to generate an 8-point dose concentration series of test compounds. The cells were stimulated with 50 ng/ml human SCF for 10 min at room temperature. Cells were then lysed by the addition of 16.5 ul of PerkinElmer 5× AlphaLISA Lysis Buffer supplemented with Cell Signaling Technologies protease/phosphatase inhibitor. Lysis was encouraged by shaking at 4° C. for 30 minutes.
25 ul of lysate was transferred to the MSD plate and the plate was shaken at 700 rpm at room temperature for one hour, followed by washing 3 times with Tris wash buffer. Next, 25 ul of detection antibody solution (diluted from 50× stock in antibody dilution buffer) was added. After shaking at 700 rpm at room temperature for one hour, the plate was washed 3 times with Tris wash buffer. The plate was then read on MSD Sector Imager immediately after 150 ul of reading buffer added to each well.
An IC50 was calculated using a 4-parameter logistic nonlinear regression.

Sequence of Exon 11 KIT (P10721 26-976 V560G): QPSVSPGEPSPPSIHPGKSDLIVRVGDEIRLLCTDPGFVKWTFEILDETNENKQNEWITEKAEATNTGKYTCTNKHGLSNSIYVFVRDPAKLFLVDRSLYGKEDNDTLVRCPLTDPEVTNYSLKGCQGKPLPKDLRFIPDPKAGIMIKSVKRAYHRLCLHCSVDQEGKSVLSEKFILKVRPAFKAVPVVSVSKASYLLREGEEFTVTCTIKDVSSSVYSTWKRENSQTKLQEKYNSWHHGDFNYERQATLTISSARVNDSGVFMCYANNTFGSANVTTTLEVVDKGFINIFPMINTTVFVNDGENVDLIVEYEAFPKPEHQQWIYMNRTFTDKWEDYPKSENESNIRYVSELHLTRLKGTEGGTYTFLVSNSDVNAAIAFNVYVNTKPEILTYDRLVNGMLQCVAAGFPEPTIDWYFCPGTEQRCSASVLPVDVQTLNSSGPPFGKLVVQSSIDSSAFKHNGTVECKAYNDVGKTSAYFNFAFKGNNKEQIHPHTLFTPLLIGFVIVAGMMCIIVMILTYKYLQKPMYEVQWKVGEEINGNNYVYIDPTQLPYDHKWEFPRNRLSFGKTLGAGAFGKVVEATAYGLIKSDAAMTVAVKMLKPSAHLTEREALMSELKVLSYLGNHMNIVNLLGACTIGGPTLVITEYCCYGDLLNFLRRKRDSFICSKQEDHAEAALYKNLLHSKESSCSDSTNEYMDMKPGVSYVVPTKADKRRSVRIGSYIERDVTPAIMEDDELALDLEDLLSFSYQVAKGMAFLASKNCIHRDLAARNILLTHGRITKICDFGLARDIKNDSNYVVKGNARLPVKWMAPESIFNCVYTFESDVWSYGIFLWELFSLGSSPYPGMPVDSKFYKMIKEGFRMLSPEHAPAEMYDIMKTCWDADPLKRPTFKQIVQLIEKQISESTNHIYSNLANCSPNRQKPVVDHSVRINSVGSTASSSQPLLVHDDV
Sequence of human P-glycoprotein (P-gp, MDR1) (P08183 whole entry): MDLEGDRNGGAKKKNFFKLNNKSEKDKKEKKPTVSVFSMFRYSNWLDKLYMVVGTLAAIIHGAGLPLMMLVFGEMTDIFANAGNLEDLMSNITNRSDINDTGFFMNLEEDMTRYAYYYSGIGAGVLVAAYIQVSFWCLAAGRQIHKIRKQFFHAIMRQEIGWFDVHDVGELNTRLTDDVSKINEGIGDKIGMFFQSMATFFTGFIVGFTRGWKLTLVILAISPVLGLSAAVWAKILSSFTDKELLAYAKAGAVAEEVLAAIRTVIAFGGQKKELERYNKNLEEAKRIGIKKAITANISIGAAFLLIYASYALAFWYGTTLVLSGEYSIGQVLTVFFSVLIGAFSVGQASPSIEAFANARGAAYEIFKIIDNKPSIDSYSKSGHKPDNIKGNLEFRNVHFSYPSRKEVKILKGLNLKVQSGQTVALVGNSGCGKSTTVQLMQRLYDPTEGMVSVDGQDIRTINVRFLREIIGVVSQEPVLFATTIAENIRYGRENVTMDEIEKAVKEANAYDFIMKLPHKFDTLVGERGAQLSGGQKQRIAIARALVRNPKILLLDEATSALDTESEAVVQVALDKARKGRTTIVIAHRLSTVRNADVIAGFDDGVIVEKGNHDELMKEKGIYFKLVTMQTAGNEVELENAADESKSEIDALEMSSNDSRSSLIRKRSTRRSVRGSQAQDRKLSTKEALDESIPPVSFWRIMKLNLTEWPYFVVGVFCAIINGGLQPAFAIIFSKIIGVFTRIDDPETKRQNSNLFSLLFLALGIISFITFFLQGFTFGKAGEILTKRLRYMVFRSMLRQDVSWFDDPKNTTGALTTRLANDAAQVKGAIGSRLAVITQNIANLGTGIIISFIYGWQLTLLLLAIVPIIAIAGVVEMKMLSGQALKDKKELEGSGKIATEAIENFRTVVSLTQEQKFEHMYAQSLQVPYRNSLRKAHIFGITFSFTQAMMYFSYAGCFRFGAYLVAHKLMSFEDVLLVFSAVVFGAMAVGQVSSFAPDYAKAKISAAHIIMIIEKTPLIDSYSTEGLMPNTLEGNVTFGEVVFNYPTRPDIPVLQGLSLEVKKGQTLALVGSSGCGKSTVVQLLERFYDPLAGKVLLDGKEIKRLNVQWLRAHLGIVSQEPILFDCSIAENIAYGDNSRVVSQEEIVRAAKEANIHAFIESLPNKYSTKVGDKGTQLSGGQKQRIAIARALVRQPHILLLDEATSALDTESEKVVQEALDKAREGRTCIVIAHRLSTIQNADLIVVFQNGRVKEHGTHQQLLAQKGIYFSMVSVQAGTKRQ
T1 sequence (P10721 26-976): as the sequence (P10721 26-976 V560G) above, with G535V counted along it

SMILES | IC50 (Exon 11 KIT) [nM] | IC50 (wild type c-kit [1]) [nM] | IC50 (NIH3T3 parental cells) [nM] | IC50 [2] [nM] | efflux ratio at 2 h, 1 µM [3] | IC50 (wild type c-kit [4]) [nM]
CCn1nnc(-c2ccc(Cl)c(NC(=O)c3cnn4ccc(-c5cn(C[C@H](O)COC)nc5C)cc34)c2)n1 [Example 284, (S)—N-(2-chloro-5-(2-ethyl-2H-tetrazol-5-yl)phenyl)-5-(1-(2-hydroxy-3-methoxypropyl)-3-methyl-1H-pyrazol-4-yl)pyrazolo[1,5-a]pyridine-3-carboxamide] | 0.2 | 0.2 | 161 | 7.5 | – | –
COC(=O)N1CC(c2cnn(-c3ccc(C)c(NC(=O)c4cnn5ccc(N6CCN(C)CC6)cc45)c3)n2)C1 [Example 81, methyl 3-(2-(4-methyl-3-(5-(4-methylpiperazin-1-yl)pyrazolo[1,5-a]pyridine-3-carboxamido)phenyl)-2H-1,2,3-triazol-4-yl)azetidine-1-carboxylate] | 6.4 | 19 | – | – | – | –
COC[C@@H](O)Cn1cc(-c2ccn3ncc(C(=O)Nc4cc(-c5nnn(C6CC6)n5)ccc4Cl)c3c2)c(C)n1 [Example 263, (S)-N-(2-chloro-5-(2-cyclopropyl-2H-tetrazol-5-yl)phenyl)-5-(1-(2-hydroxy-3-methoxypropyl)-3-methyl-1H-pyrazol-4-yl)pyrazolo[1,5-a]pyridine-3-carboxamide] | 0.2 | 0.2 | 123 | 2 | 3 | –
COCCNc1ccn2ncc(C(=O)Nc3cc(-c4nnn(C5CN(C(=O)OC)C5)n4)ccc3C)c2c1 [Example 148, methyl 3-(5-(3-(5-((2-methoxyethyl)amino)pyrazolo[1,5-a]pyridine-3-carboxamido)-4-methylphenyl)-2H-tetrazol-2-yl)azetidine-1-carboxylate] | 1 | 34.8 | – | – | 24.9 | –
Cc1cc(F)c(-c2nnn(C3CC3)n2)cc1NC(=O)c1cnn2ccc(-c3cn(CC(C)(C)O)nc3C)cc12 [Example 239, N-(5-(2-cyclopropyl-2H-tetrazol-5-yl)-4-fluoro-2-methylphenyl)-5-(1-(2-hydroxy-2-methylpropyl)-3-methyl-1H-pyrazol-4-yl)pyrazolo[1,5-a]pyridine-3-carboxamide] | 0.9 | 0.3 | – | – | 13.2 | –
Cc1nn(C[C@H](C)O)cc1-c1ccn2ncc(C(=O)Nc3cc(-c4nnn(C5CC5)n4)ccc3Cl)c2c1 [Example 278, (S)—N-(2-chloro-5-(2-cyclopropyl-2H-tetrazol-5-yl)phenyl)-5-(1-(2-hydroxypropyl)-3-methyl-1H-pyrazol-4-yl)pyrazolo[1,5-a]pyridine-3-carboxamide] | 0.2 | 0.3 | – | – | 3.6 | –
COCCOC[C@H](O)Cn1cc(-c2ccn3ncc(C(=O)Nc4cc(-c5nnn(C6CC6)n5)c(F)cc4Cl)c3c2)c(C)n1 [Example 286, (R)—N-(2-chloro-5-(2-cyclopropyl-2H-tetrazol-5-yl)-4-fluorophenyl)-5-(1-(2-hydroxy-3-(2-methoxyethoxy)propyl)-3-methyl-1H-pyrazol-4-yl)pyrazolo[1,5-a]pyridine-3-carboxamide] | – | 0.3 | 480 | 42.5 | – | –
Cc1nn(C[C@H](C)O)cc1-c1ccn2ncc(C(=O)Nc3cc(-c4nnn(C5CC5)n4)c(F)cc3Cl)c2c1 [Example 280, (S)—N-(2-chloro-5-(2-cyclopropyl-2H-tetrazol-5-yl)-4-fluorophenyl)-5-(1-(2-hydroxypropyl)-3-methyl-1H-pyrazol-4-yl)pyrazolo[1,5-a]pyridine-3-carboxamide] | – | 0.2 | 413 | 10 | – | –
COC[C@@H](O)Cn1cc(-c2ccn3ncc(C(=O)Nc4cc(-c5nnn(C6CC6)n5)ccc4Cl)c3c2)cn1 [Example 237, (S)-N-(2-chloro-5-(2-cyclopropyl-2H-tetrazol-5-yl)phenyl)-5-(1-(2-hydroxy-3-methoxypropyl)-1H-pyrazol-4-yl)pyrazolo[1,5-a]pyridine-3-carboxamide] | 0.7 | 0.5 | – | 15.6 | 3.2 | –
Cc1ccc(-c2nnn([C@H]3C[C@H](C(F)(F)F)C3)n2)cc1NC(=O)c1cnn2ccc(-c3cn[nH]c3)cc12 [Example 44, N-(2-methyl-5-(2-((1r,3r)-3-(trifluoromethyl)cyclobutyl)-2H-tetrazol-5-yl)phenyl)-5-(1H-pyrazol-4-yl)pyrazolo[1,5-a]pyridine-3-carboxamide or N-(2-methyl-5-(2-((1s,3s)-3-(trifluoromethyl)cyclobutyl)-2H-tetrazol-5-yl)phenyl)-5-(1H-pyrazol-4-yl)pyrazolo[1,5-a]pyridine-3-carboxamide] | – | – | – | – | 15.9 | 1.5
